Where “and” joins values, the source holds several entries; their conditions need not be identical. Equal entries are not always repeated. Entries after “also recorded” stand apart in the source; their conditions may differ.
Legend:
[1] = system: rats trained to discriminate morphine from vehicle; assay: Drug discrimination (DD), morphine-trained rats; details: for Maximum % drug-appropriate responding / response rates for food during test sessions: i.v.; for Maximum % drug-appropriate responding: male rats; for Response rate impairment %: highest dose tested (5.6 mg/Kg), percent of vehicle responding; for response rates for food during test sessions: compared to vehicle
Protocol: Drug Discrimination (DD): Rats were food deprived to approximately 85% of the weight of free feeding cohorts to establish operant responding for 45 mg food pellets (Bioserve, Frenchtown, N.J.) in standard operant chambers (MED Associates, St. Albans, Vt.). Rats were fed 10-20 g of standard food after daily DD sessions, and ˜3× the daily amount on weekends to maintain appropriate weight. DD consisted of 3 phases (Krivsky et al., 2006). In phase 1, rats were trained to lever press for food at a fixed ratio (FR) level 1 (i.e., 1 lever press=1 food pellet) using 2 levers with stimulus lights located above each lever and a food hopper between the levers during 120 min sessions. Responding on either lever extinguished the light and delivered a food pellet. […] Once >20 pellets were earned at FR9, sessions were shortened to 20 min and response requirements were set at FR10 and the left or right lever reinforced responding on alternate days. Once >20 pellets were earned on each lever at FR10, rats started phase 2 of DD training.
Only responses on the correct lever were reinforced and responses on the incorrect lever reset the response requirement on the correct lever. Criteria to move to phase 3 were as follows: >20 pellets per session, >90% injection appropriate lever responding, and <9 responses on the incorrect lever before the first food pellet reward.
Two paradigms were utilized to generate substitution curves: cumulative within-session and bolus between-session injections.
During substitution tests, both levers actively delivered food at an FR10 schedule. […] Doses were increased in ¼ log increments, with injections every 20 min followed 15 minutes later by DD sessions lasting 5 min each. […] The advantage of this procedure was that an entire dose-response was generated in one session.
Statistics: PRISM software (GraphPad, San Diego, Calif.) was used for one-way analysis of variance (ANOVA) with Newman-Keuls post-hoc comparisons to compare CPP groups, locomotor effects, hot plate, and DD response rates. Locomotor data recorded during the conditioning sessions were analyzed by 2-way ANOVA (session x drug) and data from the first session were subtracted from the final session to assess locomotor enhancement. Experimenters were blinded to treatment groups.

[2] = system: Male Sprague Dawley rats; assay: Conditioned place preference (CPP), 5-day procedure; assay type: in vivo, rat; details: 5 days of conditioning
Protocol: (§1) Conditioned Place Preference (CPP) and locomotor activity: Standard CPP chambers (TSE; Chesterfield, Mo.) were used to measure baseline activity and conditioning trials. Baseline activity was measured over 2 days with 4 trials per day (2 in the AM, and 2 in the PM) lasting 20 min each. […] Conditioning trials were conducted for 5 days and tested in an unbiased manner such that drug/environment pairings were counterbalanced for time of drug injection (AM or PM) and compartment (preferred or non-preferred) based on baseline activity. […] This indicates a lack of carry-over effects of drug between sessions. One day following the last conditioning trial, a 20 min test trial was conducted in the same manner as baseline trials in which rats were free to explore both compartments. Change in time spent exploring the drug-paired compartment (test-baseline) was used to indicate preference (or aversion) to the compartment. Approximately 20 min following the final session, rats were perfused and brain samples were taken for immunohistochemical analysis (below). Locomotor activity was assessed by infrared light beams located in the conditioning compartments and the start box. […] Data were recorded in meters and an assessment of locomotor sensitization was made by subtracting the first session from the final session.
(§2) Experimenters were blinded to treatment groups.

[3] = system: male and female mice; assay type: in vivo, mouse; details: s.c., compared to vehicle
[4] = system: Male Sprague-Dawley rats; assay: Reinstatement of morphine-induced conditioned place preference; details: priming dose 1.8 mg/Kg, 20 min, vs baseline
Protocol: Male Sprague-Dawley rats were exposed to a conditioned place preference (CPP) apparatus for two sessions to determine baseline (BL) preference for 2 distinct, unbiased chambers. […] The animals then underwent extinction procedures consisting of confinement for 45 min in the previously drug- and vehicle-paired chambers for 7 days.

[5] = system: Male Sprague Dawley rats; assay: Locomotor sensitization during CPP conditioning sessions; assay type: in vivo, rat; details: 1.8, 3.2, 5.6 mg/Kg i.v., 5 daily injections, compared to vehicle
Protocol: as §1, §2

[6] = system: dopamine (DA) neurons in the posterior VTA; assay: VTA dopamine cell soma morphology (TH staining, STEREO INVESTIGATOR); assay type: in vivo, rat; details: 5 consecutive daily i.v. injections; morphine effect at 5.6 mg/Kg
Protocol: DA morphology analysis: Fifteen min following the final CPP test session, rats were anesthetized with a mixture of ketamine/xylazine (85/10 mg/Kg, i.p., respectively) and perfused intracardially with 200 mL of 0.1 mol/L phosphate buffered saline (PBS) immediately followed by 300 mL of 4% paraformaldehyde in 0.1 mol/L PBS (pH=7.4). Brains were removed and post-fixed at 4° C. in the same fixative for 18 h. After post-fixation, brains were incubated in 30% sucrose at 4° C. for 2 days and sectioned coronally on a cryostat at 40 μm at the level of the posterior VTA (Spiga et al., 2003; Chu et al., 2008). After 2 consecutive washes in PBS, sections were blocked with 5% normal donkey serum (NDS) for 1 h, and incubated with the primary antibody anti-tyrosine-hydroxylase (anti-TH, 1: 3000 Cell Signaling Technology, Danvers, Mass.) overnight at 4° C. Slices were washed twice in PBS, re-blocked for 1 h, and incubated with the secondary antibody ALEXA594 (Life Technologies, Carlsbad, Calif.), for 2 h. Sections were washed, mounted on slides with PROLONG GOLD (Life Technologies), and stored at 4° C. Posterior VTA sections were verified according to the atlas of Paxinos and Watson (2007). Images of the parabrachial pigmented area (PBP) and the paranigral area (PN) subregions of the posterior VTA were captured in z-stacks (1 μm) with at least 5 tissue slices per rat and 5-6 rats per drug group. STEREO INVESTIGATOR software (MBF Bioscience; Williston, Va.) was used to quantify soma size using the optical fractionator probe to survey a sample of neurons in each z-stack while the nucleator probe was used to measure the cross-sectional area and volume of each cell soma. The optical fractionator probe was used to quantify the number of cells in a particular section of tissue through systematic random sampling. Between 12 and 16 regions were surveyed per z-stack. While the optical fractionator probe utilized stereological techniques to select a random sample to be analyzed, the nucleator probe measured the cross-sectional area of each neuron. Therefore, the simultaneous use of these probes systematically assessed neurons in the PBP and PN regions of the VTA in each subject, and provided morphological data for these cells including surface area (μm^2) and volume (μm^3). Cell somas were eligible to be quantified if they were located within the counting frame and/or if the soma touched either of the nucleator frame's green borders. Neurons were ineligible if located outside the counting frame and/or if their soma touched the frame's red borders. After determining this optimum depth, the center of the soma was located and analyzed by the nucleator probe. To eliminate bias associated with tissue orientation, nucleator rays were randomly arranged between quantifications. […]

[7] = system: male and female rats; assay: Naloxone-induced conditioned place aversion (CPA); assay type: in vivo, rat; details: i.v. morphine 5.6 mg/Kg or ZH853 4.2 mg/Kg, naloxone 1 mg/Kg s.c. 4 h later
Protocol: Four hours later they received s.c. naloxone (1 mg/Kg) and were confined to one side of the apparatus (counterbalanced) for 20 min. The following day the animals received vehicle-then-saline rather than drug-then-naloxone. This cycle (drug+4 h+nlx+next day vehicle+saline) was repeated once, and the next day the animals had access to the entire apparatus (Post-cond).
To assess whether ZH853 induces the negative affect typical of opioid withdrawal, the conditioned place aversion (CPA) test was conducted.

[8] = system: rats; details: cited from earlier work
[9] = cumulative doses producing maximum antinociceptive effects; cited from earlier work
[10] = system: male rats; assay: Maintenance of established oxycodone self-administration (substitution); assay type: in vivo, rat; details: after acquisition of oxycodone SA; drug continued or substituted, i.v. infusions
Protocol: (§3) Self-administration (SA): Self-administration tests were conducted in standard operant chambers (MED Associates, St. Albans, Vt.). Infusions were delivered through TYGON tubing threaded through metal spring leashes and attached to exterior infusion pumps. 3-hour sessions were conducted Monday-Friday during the dark cycle. At the start of each session, the house light was illuminated, and levers extended. […] For the first 5 sessions, rats were trained to lever press for oxycodone (0.1 mg/kg/infusion) on a FR1 reinforcement schedule. For the following 10 sessions, the dose of oxycodone was decreased to 0.05 mg/kg/infusion to increase lever responding.
Maintenance of established oxycodone self-administration: Following acquisition of oxycodone self-administration, animals were split into treatment groups counterbalanced for total oxycodone intake, average number of infusions obtained in the last 3 sessions, and average number of active lever pressings over the last 3 sessions. Ten maintenance sessions were conducted in the same way as oxycodone acquisition except rats were either maintained on 0.1 mg/kg/infusion oxycodone or had drug availability substituted with equi-antinociceptive 1 mg/kg/infusion ZH853 or vehicle.

[11] = system: male rats; assay: Forced abstinence and relapse test (oxycodone seeking); assay type: in vivo, rat; details: 8th day of forced abstinence; i.v. pretreatment ZH853 1.8 or 3.2 mg/kg, oxycodone 0.32 mg/kg
Protocol: as §3
Forced abstinence and relapse test: Following acquisition of oxycodone self-administration, rats underwent 7 days of forced abstinence from oxycodone and exposure to the testing environment in their home cages. Animals were then split into treatment groups counterbalanced for total oxycodone intake, average number of infusions obtained in the last 3 sessions, and average number of active lever pressings over the last 3 sessions. On the 8th day of forced abstinence, rats were given an intravenous injection of 1.8 mg/kg ZH853, 3.2 mg/kg ZH853, or vehicle. The relapse test began 30 minutes later.

[12] = system: DBA mice; assay: Hot plate antinociception test; assay type: in vivo, mouse; details: 40 mg/Kg, s.c.

CN1CC[C@]23c4c5ccc(O)c4O[C@H]2[C@@H](O)C=C[C@H]3[C@H]1C5.O=S(=O)(O)O [Morphine, Morphine sulfate, reference compound]
doses disrupting response rates during test sessions ([1]; bolus injections): ≥ 3.2 mg/kg
Maximum % drug-appropriate responding ([1]; bolus injections made between sessions): 100%
Response rate impairment % ([1]; bolus injections, sulfate): 77% and 77.1%
doses disrupting response rates during test sessions ([1]; cumulative injections): ≥ 5.6 mg/kg
Maximum % drug-appropriate responding ([1]; cumulative injections within a single session): 100%
Response rate impairment % ([1]; cumulative injections, sulfate): 55% and 54.5%
response rates for food during test sessions [1]: reduced response rates compared to vehicle
response rates for food during training ([1]; training doses 3.2 mg/Kg s.c. and 1.8 mg/Kg i.v., compared to saline): modestly impaired
appropriate drug-lever responding ([1]; training, after approximately 20 sessions): > 90%
conditioned place preference (CPP) ([2]; 3.2 mg/Kg i.v.): produced conditioned place preference (CPP) effects
conditioned place preference (CPP) ([2]; 1.8 and 5.6 mg/Kg i.v.): did not produce significant CPP
tail flick antinociception [3]: increased the latency to tail flick
reinstatement of morphine CPP after extinction [4]: showed reinstatement of CPP
locomotor sensitization (LS), day 5 minus day 1 [5]: produced LS at all doses tested
surface area of TH-positive somas in pVTA [6]: reduced
volume of TH-positive somas in pVTA [6]: reduced
naloxone-induced place aversion [7]: produces aversive behavior
hourly SA intake ([8]; 12-hour SA sessions, 1 mg/Kg/infusion): ~3.5 mg/kg/h

NC(=O)[C@@H]1CCCCNC(=O)CC[C@@H](NC(=O)[C@@H](N)Cc2ccc(O)cc2)C(=O)N[C@@H](Cc2ccccc2)C(=O)N[C@@H](Cc2ccccc2)C(=O)N1 [ZH831, Tyr-c[D-Glu-Phe-Phe-Lys]-NH2]
Response rate impairment % ([1]; bolus injections): 21% and 21.1%
Response rate impairment % ([1]; cumulative injections): 31% and 30.6%
response rates for food during test sessions [1]: not impaired
motor impairment on the Rotarod [9]: lack of motor impairment
reinforcing effects in SA/CPP procedures ([8]; rat, in vivo): did not produce reinforcing effects in SA/CPP procedures

NC(=O)[C@@H]1CCC(=O)NCCCC[C@@H](NC(=O)[C@@H](N)Cc2ccc(O)cc2)C(=O)N[C@@H](Cc2c[nH]c3ccccc23)C(=O)N[C@@H](Cc2ccccc2)C(=O)N1 [ZH850, Tyr-c[D-Lys-Trp-Phe-Glu]-NH2]
Response rate impairment % ([1]; bolus injections): 30% and 30.4%
Response rate impairment % ([1]; cumulative injections): −0.3%
response rates for food during test sessions [1]: impaired response rates only after bolus, but not after cumulative injections; also recorded: reduced response rates compared to vehicle

COc1ccc2c3c1O[C@H]1C(=O)CC[C@@]4(O)[C@@H](C2)N(C)CC[C@]314 [oxycodone, reference compound]
self-administration behavior during maintenance sessions [10]: the drug-seeking behavior was maintained
oxycodone-seeking (SA behavior, active lever responding) in 1-hour relapse test [11]: associated with a relapse to SA behavior

COC(=O)/C=C/C(=O)N[C@@H]1CC[C@@]2(O)[C@H]3Cc4ccc(O)c5c4[C@@]2(CCN3CC2CC2)[C@H]1O5 [βFNA, beta-funaltrexamine]
antinociceptive properties alone [12]: no antinociceptive properties alone

Reference: patent publication US20220056075A1, “METHOD FOR TREATING OPIOID USE DISORDER” (THE ADMINISTRATORS OF THE TULANE EDUCATIONAL FUND, priority 2019, published 2022)
